In paper PMC11649521 (The Journal of Physiology, 2024):

Tests used:
Assay in all cases: cell-based
Details in all cases: read-out: % block at 1 μM PhTx
[1] = target: B/β (type-B iGluR/Neto-β; GluRIIB/C/D/E + Neto-β) (Drosophila melanogaster, UniProt Q0KI42+Q7KSB1+Q9VMP3+Q9VPV3)
[2] = target: B/α (type-B iGluR/Neto-α; GluRIIB/C/D/E + Neto-α) (Drosophila melanogaster, UniProt Q0KI42+Q7KSB1+Q9VMP3+Q9VPV3)
[3] = target: A/β (type-A iGluR/Neto-β; GluRIIA/C/D/E + Neto-β) (Drosophila melanogaster, UniProt Q0KI42+Q7KSB1+Q9VMP4+Q9VPV3)
Sequence of A/β (type-A iGluR/Neto-β; GluRIIA/C/D/E + Neto-β) (Q9VMP4 22-907): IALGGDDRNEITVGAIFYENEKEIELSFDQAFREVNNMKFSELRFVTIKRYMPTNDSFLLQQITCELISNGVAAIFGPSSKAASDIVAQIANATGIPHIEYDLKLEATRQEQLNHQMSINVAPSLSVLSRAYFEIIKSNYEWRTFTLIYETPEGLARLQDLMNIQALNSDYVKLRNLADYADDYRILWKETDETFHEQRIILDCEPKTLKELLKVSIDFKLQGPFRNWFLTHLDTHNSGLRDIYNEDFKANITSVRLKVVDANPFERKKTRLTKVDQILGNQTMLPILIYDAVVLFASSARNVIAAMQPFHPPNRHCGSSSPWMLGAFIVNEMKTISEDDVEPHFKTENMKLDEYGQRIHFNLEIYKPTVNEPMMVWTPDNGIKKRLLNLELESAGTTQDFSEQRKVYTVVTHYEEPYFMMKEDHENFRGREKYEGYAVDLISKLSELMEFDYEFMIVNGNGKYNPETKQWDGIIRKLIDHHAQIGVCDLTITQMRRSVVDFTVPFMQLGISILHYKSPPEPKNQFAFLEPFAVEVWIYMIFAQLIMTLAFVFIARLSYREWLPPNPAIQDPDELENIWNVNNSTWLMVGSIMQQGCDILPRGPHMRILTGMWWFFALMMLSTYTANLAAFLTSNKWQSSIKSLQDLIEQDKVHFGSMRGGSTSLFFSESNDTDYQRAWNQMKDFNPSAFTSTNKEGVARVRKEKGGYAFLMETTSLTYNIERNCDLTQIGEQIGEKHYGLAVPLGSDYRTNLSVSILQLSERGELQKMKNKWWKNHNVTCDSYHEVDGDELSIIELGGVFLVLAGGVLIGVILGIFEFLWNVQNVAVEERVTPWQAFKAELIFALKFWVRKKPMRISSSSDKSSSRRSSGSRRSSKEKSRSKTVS
Sequence of A/β (type-A iGluR/Neto-β; GluRIIA/C/D/E + Neto-β) (Q9VPV3 23-940): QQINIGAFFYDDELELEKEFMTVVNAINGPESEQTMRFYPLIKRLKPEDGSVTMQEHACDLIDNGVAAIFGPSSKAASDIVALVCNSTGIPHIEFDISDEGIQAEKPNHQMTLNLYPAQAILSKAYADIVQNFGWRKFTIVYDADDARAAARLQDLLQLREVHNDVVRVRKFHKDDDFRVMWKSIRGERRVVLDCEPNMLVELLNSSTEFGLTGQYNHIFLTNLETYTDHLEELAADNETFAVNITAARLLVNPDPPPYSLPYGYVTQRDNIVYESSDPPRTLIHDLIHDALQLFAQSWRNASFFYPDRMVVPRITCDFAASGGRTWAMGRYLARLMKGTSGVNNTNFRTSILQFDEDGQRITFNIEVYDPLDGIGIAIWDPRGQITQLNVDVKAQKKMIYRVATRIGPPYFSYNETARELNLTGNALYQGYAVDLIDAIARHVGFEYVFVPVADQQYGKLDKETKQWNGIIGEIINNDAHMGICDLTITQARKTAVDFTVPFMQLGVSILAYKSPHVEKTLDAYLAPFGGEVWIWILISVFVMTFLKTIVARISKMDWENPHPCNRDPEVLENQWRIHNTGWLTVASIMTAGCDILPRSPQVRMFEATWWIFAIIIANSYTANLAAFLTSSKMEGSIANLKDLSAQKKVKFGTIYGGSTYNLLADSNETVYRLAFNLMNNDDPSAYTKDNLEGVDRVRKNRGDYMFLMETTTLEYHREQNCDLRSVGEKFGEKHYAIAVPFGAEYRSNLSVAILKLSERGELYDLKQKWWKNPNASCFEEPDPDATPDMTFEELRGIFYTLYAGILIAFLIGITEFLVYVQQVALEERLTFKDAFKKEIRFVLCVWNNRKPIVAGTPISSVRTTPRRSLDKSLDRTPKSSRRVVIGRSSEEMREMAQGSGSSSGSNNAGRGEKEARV
Sequence of A/β (type-A iGluR/Neto-β; GluRIIA/C/D/E + Neto-β) (Q7KSB1 19-902): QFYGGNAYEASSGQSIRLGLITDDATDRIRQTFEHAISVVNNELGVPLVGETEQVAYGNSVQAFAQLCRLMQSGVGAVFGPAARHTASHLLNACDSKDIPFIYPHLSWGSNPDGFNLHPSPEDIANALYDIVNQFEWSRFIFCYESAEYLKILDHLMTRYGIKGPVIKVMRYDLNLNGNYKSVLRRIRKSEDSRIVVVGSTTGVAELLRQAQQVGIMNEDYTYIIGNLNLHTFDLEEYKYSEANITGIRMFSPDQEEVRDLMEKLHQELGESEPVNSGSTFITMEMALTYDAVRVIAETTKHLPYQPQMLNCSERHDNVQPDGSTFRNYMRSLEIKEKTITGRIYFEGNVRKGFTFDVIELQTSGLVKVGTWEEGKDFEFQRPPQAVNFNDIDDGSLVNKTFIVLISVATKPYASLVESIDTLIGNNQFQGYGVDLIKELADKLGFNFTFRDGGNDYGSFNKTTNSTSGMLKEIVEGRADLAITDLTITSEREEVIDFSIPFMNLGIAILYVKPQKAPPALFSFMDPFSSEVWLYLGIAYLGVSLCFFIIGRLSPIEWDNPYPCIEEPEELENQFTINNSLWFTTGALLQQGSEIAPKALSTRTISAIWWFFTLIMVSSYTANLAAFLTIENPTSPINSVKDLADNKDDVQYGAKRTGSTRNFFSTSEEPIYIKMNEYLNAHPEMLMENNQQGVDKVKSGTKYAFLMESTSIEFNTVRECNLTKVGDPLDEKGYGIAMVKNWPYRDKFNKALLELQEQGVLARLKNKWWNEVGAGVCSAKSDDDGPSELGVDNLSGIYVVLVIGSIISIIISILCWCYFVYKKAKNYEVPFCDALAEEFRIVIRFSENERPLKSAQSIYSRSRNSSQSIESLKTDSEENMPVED
Sequence of A/β (type-A iGluR/Neto-β; GluRIIA/C/D/E + Neto-β) (Q0KI42 23-897): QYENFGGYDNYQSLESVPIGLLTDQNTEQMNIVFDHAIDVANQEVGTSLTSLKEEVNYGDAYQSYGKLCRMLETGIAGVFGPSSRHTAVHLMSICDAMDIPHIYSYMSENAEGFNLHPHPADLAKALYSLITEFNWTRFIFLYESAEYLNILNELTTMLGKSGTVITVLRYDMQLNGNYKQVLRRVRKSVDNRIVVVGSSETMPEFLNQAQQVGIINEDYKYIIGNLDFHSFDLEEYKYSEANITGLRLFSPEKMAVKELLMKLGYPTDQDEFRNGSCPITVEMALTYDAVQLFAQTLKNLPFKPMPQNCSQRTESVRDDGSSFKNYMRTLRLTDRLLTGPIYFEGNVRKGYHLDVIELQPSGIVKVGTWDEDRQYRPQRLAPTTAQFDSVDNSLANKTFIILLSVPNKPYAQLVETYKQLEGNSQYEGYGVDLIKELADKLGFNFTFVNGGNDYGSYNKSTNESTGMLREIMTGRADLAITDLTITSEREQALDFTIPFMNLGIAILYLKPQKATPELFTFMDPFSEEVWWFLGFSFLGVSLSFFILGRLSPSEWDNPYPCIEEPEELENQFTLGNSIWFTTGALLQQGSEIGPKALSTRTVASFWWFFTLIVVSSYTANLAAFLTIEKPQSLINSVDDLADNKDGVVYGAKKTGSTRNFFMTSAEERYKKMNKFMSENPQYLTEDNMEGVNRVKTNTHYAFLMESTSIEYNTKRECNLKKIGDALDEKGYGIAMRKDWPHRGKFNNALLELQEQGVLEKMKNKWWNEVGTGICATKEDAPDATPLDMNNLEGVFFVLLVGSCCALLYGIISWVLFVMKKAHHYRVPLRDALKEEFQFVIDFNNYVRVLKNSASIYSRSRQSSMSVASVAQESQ
Sequence of A/β (type-A iGluR/Neto-β; GluRIIA/C/D/E + Neto-β) (X2JDL4 127-822 partner limits assumed): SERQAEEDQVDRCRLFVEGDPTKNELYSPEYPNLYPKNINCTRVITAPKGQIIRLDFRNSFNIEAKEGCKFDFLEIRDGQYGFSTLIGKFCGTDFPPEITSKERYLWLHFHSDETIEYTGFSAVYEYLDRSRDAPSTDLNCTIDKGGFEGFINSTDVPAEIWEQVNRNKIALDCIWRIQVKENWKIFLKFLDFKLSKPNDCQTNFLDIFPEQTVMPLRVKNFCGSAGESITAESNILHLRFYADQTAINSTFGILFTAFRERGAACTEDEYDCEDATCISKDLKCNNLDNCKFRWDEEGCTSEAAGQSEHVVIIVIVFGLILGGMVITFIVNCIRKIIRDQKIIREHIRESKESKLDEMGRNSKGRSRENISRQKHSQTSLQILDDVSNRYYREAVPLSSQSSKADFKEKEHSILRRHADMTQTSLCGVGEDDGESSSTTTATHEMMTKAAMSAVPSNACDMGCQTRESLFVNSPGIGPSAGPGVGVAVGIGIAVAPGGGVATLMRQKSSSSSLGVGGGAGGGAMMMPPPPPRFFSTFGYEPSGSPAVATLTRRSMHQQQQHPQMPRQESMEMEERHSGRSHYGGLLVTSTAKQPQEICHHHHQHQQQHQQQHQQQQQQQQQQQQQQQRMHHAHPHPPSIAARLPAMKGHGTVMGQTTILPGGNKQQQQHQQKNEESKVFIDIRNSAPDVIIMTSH

**Q.** `CCCC(=O)N[C@@H](Cc1ccc(O)cc1)C(=O)NCCCNCCCCNCCCN` [PhTx, philanthotoxin‐343] was tested. Which inhibition at 1 µM [1] did it give?
**A.** 74.7 ± 1.72%

**Q.** What about the inhibition at 1 µM [2] of the same compound?
**A.** 83.3 ± 5.07%

**Q.** What about the inhibition at 1 µM [3] of the same compound?
**A.** 98.8 ± 0.67%
